# Tested on: kidney injury (ischemia-reperfusion)
# Conditions: rat; for blood urea nitrogen (BUN) / plasma creatinine: 15 mg/kg IV after ischemia-reperfusion, 24 hours after reperfusion, vs IR-vehicle; for kidney injury: dosed IV after ischemia-reperfusion
Structure (SMILES),blood urea nitrogen (BUN),plasma creatinine,kidney injury
"C[C@H]1CN(c2ccc(C#N)cn2)CCN1C(=O)CCc1nc2ccc(F)cc2c(=O)[nH]1 [Ex. 29, 6-[(3S)-4-[3-(6-fluoro-4-oxo-3H-quinazolin-2-yl)propanoyl]-3-methyl-piperazin-1-yl]pyridine-3-carbonitrile]",significantly reduced,significantly reduced,reduced kidney injury
"C[C@H]1CN(c2ccc(C#N)cn2)CCN1C(=O)CCc1nc2cccc(F)c2c(=O)[nH]1 [Ex. 30, 6-[(3S)-4-[3-(5-fluoro-4-oxo-3H-quinazolin-2-yl)propanoyl]-3-methyl-piperazin-1-yl]pyridine-3-carbonitrile]",significantly reduced,significantly reduced,reduced kidney injury
